Measured values published in ChEMBL document CHEMBL1201862, “PubChem BioAssay data set” (2004).
Values belong to the molecule of their own block, whether it stands above or below them. Active and inactive are the calls of the source.

Experiments:
[1] = molecular target: T1, Hepatocyte nuclear factor 4-alpha (Homo sapiens, UniProt P41235); type: functional, cell-based;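 note: biochemical luminescence-based dose-response counterscreen measuring inhibition of HNF4 dimerization, run alongside a screen for blockers of ABHD5–perilipin-5 interaction; split luciferase complementation of HNF4 fusion proteins in cell lysate measuring dimerization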
T1 sequence (P41235 whole entry): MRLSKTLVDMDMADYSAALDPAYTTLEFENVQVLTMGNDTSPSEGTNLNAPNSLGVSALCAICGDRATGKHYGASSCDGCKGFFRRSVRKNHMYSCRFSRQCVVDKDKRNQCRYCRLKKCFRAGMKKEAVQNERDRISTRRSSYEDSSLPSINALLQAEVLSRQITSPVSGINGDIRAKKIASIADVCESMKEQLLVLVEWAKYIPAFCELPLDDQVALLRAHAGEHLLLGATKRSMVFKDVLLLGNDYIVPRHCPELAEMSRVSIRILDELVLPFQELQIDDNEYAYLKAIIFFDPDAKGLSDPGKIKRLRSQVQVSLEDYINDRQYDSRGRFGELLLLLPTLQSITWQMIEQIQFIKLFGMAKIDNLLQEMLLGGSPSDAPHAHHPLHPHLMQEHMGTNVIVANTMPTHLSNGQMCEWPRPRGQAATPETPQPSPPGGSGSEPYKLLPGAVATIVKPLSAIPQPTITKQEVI

cells [2] = type: functional, cell-based
cells [3] = type: functional, cell-based; remark: listed apart in the source
[4] = molecular target: T2, Trace amine-associated receptor 1 (Homo sapiens, UniProt Q96RJ0); assay: Fluorescence-based cell-based high throughput dose response assay to identify agonists of the human trace amine associated receptor 1 (TAAR1).; type: functional
T2 sequence (Q96RJ0 whole entry): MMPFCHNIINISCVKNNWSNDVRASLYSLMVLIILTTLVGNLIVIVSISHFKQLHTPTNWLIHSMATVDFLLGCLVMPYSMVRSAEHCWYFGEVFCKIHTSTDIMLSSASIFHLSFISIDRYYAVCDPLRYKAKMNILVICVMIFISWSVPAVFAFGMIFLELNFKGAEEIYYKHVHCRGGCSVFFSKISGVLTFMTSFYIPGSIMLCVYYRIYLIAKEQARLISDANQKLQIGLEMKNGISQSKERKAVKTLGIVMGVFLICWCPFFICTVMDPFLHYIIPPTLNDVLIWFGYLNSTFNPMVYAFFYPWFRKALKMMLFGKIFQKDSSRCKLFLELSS

[5] = molecular target: T2, Trace amine-associated receptor 1; assay: Counterscreen for agonists of the human trace amine associated receptor 1 (hTAAR1): Fluorescence-based cell-based high throughput dose response assay to identify hTAAR1 agonist that also desensitize TAAR1 receptor response.; type: functional
[6] = A2780 ovarian cancer cell cytotoxicity, dose response, cytotoxicity control, plate reader, dry powder samples (AID 743046); type: functional, cell-based
[7] = P. falciparum Dd2 growth inhibitors, dose response, SYBR Green, cherry-picked samples (AID 1159567); type: functional, cell-based
[8] = molecular target: T3, Nuclear receptor subfamily 0 group B member 1 (Homo sapiens, UniProt P51843); assay: Luminescence-based cell-based high throughput dose response assay for inhibitors of the orphan nuclear receptor subfamily 0, group B, member 1 (DAX1; NR0B1). [Related pubchem assays (depositor defined):AID504766, AID504790]; type: functional
T3 sequence (P51843 whole entry): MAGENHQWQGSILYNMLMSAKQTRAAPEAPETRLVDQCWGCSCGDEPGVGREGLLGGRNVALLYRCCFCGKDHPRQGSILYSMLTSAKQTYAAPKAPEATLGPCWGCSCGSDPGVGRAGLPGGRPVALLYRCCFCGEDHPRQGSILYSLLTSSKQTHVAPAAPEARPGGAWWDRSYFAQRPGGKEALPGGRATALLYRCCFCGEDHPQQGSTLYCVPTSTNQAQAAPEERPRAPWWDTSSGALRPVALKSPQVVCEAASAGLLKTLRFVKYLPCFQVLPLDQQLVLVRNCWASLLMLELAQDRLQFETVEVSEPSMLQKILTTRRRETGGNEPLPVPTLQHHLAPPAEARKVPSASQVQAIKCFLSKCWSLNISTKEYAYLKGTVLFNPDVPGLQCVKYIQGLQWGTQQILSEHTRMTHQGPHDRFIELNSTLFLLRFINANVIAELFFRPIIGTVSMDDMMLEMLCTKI

[9] = growth suppression of beta-catenin-knockout colon cells, dose response, cell-based, HCT116, human colon tumor (AID 1045); type: functional;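 note: HCT116 colon tumor cells with beta catenin knocked out; cells exposed to compound for 60 hours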
HEK293 = assay: cells; type: functional, cell-based; conditions: Homo sapiens
[10] = growth suppression of PTEN-null colon cells, dose response, cell-based, HCT116 PTEN knockout (AID 1047); type: functional;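 note: HCT116 colon tumor cells with PTEN knocked out; cells exposed to compound for 60 hours before readout; potency for loss of cell viability measured by luminescence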
[11] = molecular target: T4, Ubiquitin-conjugating enzyme E2 N (Homo sapiens, UniProt P61088); type: functional;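 note: Dose-response confirmation in a TR-FRET assay detecting UBC13-driven polyubiquitin chain formation, inhibition measured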
T4 sequence (P61088 whole entry): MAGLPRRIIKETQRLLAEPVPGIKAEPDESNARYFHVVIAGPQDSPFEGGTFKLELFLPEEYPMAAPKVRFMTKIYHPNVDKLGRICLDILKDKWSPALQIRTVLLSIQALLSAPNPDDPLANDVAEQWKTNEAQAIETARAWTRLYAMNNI

INS1 = assay: beta cell apoptosis inhibitors, cytokine rescue, dose response, luminescence, retest (AID 449756); type: functional, cell-based; conditions: Rattus norvegicus;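 note: cell death triggered by IL-1 beta plus TNF-alpha plus IFN-gamma mixture; protective hits raise ATP signal compared with cytokine alone wells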
[12] = control 3'UTR Renilla luciferase suppression, dose response, counter-screen for Shn3 inhibitor project, cell-based, Clone20-Shn3RL, cherry-picked (AID 624133); type: functional
[13] = HepG2 cell cytotoxicity, dose response, cytotoxicity control for Shn3 inhibitor project, CellTiter-Glo, cherry-picked (AID 624134); type: functional, cell-based
[14] = Shn3 3'UTR reporter inhibitors, dose response, cell-based, Clone20 osteoblasts, firefly luciferase, cherry-picked (AID 624132); type: functional;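 note: firefly luciferase luminescence from reporter carrying the Shn3 3'UTR in osteoblasts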
Cytochrome P450 2D6 = Cytochrome P450 2D6 (Homo sapiens, UniProt P10635);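 note: CYP2D6 member of a cytochrome P450 panel assay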
Cytochrome P450 2D6, sequence (P10635 whole entry): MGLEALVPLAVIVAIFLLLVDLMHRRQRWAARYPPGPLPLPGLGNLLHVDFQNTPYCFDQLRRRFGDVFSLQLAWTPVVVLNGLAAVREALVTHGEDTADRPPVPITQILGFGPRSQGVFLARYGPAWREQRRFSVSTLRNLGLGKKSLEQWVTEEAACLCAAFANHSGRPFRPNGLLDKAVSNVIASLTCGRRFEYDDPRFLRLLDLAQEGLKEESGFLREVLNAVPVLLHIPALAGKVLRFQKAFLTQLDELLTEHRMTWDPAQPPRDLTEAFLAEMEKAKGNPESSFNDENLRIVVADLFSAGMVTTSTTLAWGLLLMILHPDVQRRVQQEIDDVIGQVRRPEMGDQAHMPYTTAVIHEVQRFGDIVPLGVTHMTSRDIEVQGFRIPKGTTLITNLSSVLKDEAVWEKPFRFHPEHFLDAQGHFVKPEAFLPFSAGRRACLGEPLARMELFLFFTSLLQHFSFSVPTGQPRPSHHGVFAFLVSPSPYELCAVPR

Cytochrome P450 3A4 = Cytochrome P450 3A4 (Homo sapiens, UniProt P08684);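 note: CYP3A4 tested as one member of a cytochrome P450 panel screen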
Cytochrome P450 3A4, sequence (P08684 whole entry): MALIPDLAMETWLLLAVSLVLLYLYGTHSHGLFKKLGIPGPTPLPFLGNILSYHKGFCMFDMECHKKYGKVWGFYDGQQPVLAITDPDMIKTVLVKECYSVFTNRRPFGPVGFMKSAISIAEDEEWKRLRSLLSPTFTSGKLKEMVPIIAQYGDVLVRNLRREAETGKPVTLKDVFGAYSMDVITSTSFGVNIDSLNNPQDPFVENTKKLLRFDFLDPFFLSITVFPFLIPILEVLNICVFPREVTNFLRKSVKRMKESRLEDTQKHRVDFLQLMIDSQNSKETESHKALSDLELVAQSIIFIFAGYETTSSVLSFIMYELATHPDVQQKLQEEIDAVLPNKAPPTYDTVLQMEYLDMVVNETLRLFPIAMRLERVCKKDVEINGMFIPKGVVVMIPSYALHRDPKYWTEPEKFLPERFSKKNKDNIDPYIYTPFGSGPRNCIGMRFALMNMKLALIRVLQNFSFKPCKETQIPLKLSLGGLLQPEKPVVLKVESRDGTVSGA

Cytochrome P450 1A2 = molecular target: T5, Cytochrome P450 1A2 (Homo sapiens, UniProt P05177);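 note: PubChem cytochrome P450 panel assay, CYP1A2 panel member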
T5 sequence (P05177 whole entry): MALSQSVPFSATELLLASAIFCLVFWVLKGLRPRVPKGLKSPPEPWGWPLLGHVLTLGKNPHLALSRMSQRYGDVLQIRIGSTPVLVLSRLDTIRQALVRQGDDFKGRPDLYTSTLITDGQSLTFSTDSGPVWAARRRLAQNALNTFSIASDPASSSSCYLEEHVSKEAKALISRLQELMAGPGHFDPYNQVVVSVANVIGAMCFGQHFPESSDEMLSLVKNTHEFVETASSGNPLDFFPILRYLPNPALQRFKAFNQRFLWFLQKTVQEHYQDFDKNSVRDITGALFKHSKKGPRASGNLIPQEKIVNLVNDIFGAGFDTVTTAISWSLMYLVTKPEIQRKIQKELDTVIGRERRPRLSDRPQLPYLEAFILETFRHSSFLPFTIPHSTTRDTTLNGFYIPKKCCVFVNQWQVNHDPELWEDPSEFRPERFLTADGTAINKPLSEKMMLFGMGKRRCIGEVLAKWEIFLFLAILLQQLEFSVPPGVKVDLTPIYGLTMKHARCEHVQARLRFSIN

[15] = molecular target: Voltage-gated inwardly rectifying potassium channel KCNH2 (Homo sapiens, UniProt Q12809); conditions: Potency;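 note: confirmatory quantitative high-throughput screen measuring inhibition of hERG channel activity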
Voltage-gated inwardly rectifying potassium channel KCNH2, sequence (Q12809 whole entry): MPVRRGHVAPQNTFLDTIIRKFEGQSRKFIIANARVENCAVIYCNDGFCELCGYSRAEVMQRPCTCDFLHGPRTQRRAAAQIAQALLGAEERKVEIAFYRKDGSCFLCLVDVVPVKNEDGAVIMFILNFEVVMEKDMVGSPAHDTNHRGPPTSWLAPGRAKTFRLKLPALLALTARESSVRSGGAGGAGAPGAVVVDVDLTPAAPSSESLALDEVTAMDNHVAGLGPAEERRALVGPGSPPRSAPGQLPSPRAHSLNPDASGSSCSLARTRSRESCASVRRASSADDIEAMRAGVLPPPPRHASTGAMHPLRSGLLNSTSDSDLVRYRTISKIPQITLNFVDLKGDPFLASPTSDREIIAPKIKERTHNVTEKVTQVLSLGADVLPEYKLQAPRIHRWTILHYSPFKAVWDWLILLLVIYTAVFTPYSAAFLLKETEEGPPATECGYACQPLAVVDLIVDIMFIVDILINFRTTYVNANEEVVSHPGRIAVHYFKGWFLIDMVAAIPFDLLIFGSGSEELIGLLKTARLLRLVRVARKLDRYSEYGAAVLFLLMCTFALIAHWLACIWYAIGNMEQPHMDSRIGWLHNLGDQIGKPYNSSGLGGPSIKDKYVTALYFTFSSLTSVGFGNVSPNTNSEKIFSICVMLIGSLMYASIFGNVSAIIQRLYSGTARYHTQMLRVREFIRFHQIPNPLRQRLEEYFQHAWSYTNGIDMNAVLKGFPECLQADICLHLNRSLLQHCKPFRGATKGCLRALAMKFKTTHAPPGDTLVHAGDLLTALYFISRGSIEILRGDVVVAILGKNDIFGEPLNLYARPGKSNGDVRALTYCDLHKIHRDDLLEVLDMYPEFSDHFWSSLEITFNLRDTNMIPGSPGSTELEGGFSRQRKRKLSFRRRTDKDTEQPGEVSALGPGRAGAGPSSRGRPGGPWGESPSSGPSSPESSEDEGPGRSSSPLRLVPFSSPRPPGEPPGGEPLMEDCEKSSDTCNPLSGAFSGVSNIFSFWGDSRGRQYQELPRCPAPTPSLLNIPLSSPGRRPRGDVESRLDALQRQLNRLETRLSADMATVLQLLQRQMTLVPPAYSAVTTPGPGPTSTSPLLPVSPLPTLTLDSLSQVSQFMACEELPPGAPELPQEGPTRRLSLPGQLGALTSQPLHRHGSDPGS

Cytochrome P450 2C19 = Cytochrome P450 2C19 (Homo sapiens, UniProt P33261); assay: Cytochrome panel assay with activity outcomes. Panel member name: p450-cyp2c19 Compounds with AC50 equal or less than 10 uM are considered active; type: functional; conditions: read-out: AC50
Cytochrome P450 2C19, sequence (P33261 whole entry): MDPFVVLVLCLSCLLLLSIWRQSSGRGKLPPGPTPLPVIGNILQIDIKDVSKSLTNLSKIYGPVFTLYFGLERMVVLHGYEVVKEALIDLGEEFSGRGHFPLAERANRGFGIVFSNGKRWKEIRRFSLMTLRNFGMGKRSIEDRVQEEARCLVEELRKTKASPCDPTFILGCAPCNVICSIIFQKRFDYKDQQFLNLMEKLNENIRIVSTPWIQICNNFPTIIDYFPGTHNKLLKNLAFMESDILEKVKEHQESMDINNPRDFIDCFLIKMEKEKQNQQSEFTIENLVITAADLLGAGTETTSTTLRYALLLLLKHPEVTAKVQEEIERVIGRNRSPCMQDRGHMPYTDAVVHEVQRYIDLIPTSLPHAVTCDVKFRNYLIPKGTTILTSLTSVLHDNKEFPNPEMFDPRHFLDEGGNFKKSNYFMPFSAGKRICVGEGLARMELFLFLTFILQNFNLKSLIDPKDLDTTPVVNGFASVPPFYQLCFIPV

IC50 [1]: 2.54 µM (active)
Structure (SMILES): O=c1c(-c2ccco2)nc2ccccc2n1C(CCc1ccccc1)c1nc2ccccc2[nH]1 (stereo not given)

IC50 [1]: 8.03 µM (active)
Structure (SMILES): CC(C)(C)NC(=O)C(c1ccncc1)n1c(=O)c(-c2ccco2)nc2ccccc21 (stereo not given)

Structure (SMILES): O=C(N[C@H](C(=O)N1CCC[C@H]1C(=O)NCCc1ccccc1Cl)C1CCCCC1)C1CC1
IC50 (cells [2]): > 29.9 µM (inactive)
EC50 (cells [3]): > 29.9 µM (inactive)
EC50 [4]: 12.1 µM (inactive)
IC50 [5]: 8.99 µM (active)

Structure (SMILES): COc1ncnc2c1ncn2CCCNCC(C)c1ccccc1 (stereo not given)
IC50 (cells [2]): > 29.9 µM (inactive)
EC50 (cells [3]): > 29.9 µM (inactive)
EC50 [4]: 3.84 µM (active)
IC50 [5]: 12.8 µM (inactive)

Structure (SMILES): CO[C@@H]1CN(C)C(=O)c2cc(NC(=O)c3nc4ccccc4s3)ccc2OC[C@H](C)NC[C@H]1C
AC50 [6]: 0.437 µM (active)
AC50 [7]: 10 µM (active)

Structure (SMILES): Cn1nc(-c2ccc(Cl)cc2)c2cc(C(=O)NCCN3CCOCC3)sc21
IC50 [8]: > 67.5 µM (inactive)
EC50 [9]: 17 µM (active)
IC50 (HEK293): > 67.5 µM (inactive)
EC50 [10]: 22.4 µM (active)

Structure (SMILES): COc1ccc(Nc2nc(N3CCCC3)c3ccccc3n2)cc1
IC50 [11]: > 20 µM (inactive)
IC50 (cells [2]): 19.7 µM (inactive)
EC50 (cells [3]): > 29.9 µM (inactive)
AC50 (INS1): 3.07 µM (active)
AC50 [12]: 5.37 µM (active)
AC50 [13]: 8.46 µM (active)
EC50 [4]: > 3.32 µM (active)
IC50 [5]: 7.19 µM (active)
AC50 [14]: 3.67 µM (active)

AC50 (Cytochrome P450 2D6): 39.8 µM (inconclusive)
AC50 (Cytochrome P450 3A4): inconclusive
AC50 (Cytochrome P450 1A2): 25.1 µM (inconclusive)
AC50 (Cytochrome P450 2C19): 15.8 µM (inconclusive)
Structure (SMILES): C[C@H](Cc1ccc(O)c(O)c1)[C@@H](C)Cc1ccc(O)c(O)c1 [MASOPROCOL]
AC50 [15]: 35.5 µM (inconclusive)
